Test results from the supplement of paper PMC10307832.

Key:
Experiment in all cases: relative viability (nuclei count vs DMSO), 5 days (fraction); higher = more cells survive
SW 900 = system: SW 900
Method in brief: (§1)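 Lung cancer cell lines in 1536-well plates got either a single drug or a fixed anchor-drug dose together with five library-drug doses (not always all listed) in √10 steps, by pin tool, on the day after seeding. Nuclei were counted after 5 days, and relative viability is the treated-to-vehicle ratio of nuclei counts. Values are medians of duplicate plates.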

NCI-H1793 = system: NCI-H1793
Method in brief: as §1

PC-3 [JPC-3] = system: PC-3 [JPC-3]
Method in brief: as §1

H3255 = system: H3255
Method in brief: as §1

NCI-H596 = system: NCI-H596
Method in brief: as §1

201T = system: 201T
Method in brief: as §1

PC-14 = system: PC-14
Method in brief: as §1

NCI-H2228 = system: NCI-H2228
Method in brief: as §1

LK-2 = system: LK-2
Method in brief: as §1

NCI-H2347 = system: NCI-H2347
Method in brief: as §1

NCI-H727 = system: NCI-H727
Method in brief: as §1

A-427 = system: A-427
Method in brief: as §1

NCI-H23 = system: NCI-H23
Method in brief: as §1

LCLC-97TM1 = system: LCLC-97TM1
Method in brief: as §1

LCLC-103H = system: LCLC-103H
Method in brief: as §1

COR-L23 = system: COR-L23
Method in brief: as §1

LC-2-ad = system: LC-2-ad
Method in brief: as §1

SW 1573 = system: SW 1573
Method in brief: as §1

HCC-44 = system: HCC-44
Method in brief: as §1

NCI-H460 = system: NCI-H460
Method in brief: as §1

NCI-H1650 = system: NCI-H1650
Method in brief: as §1

LU99A = system: LU99A
Method in brief: as §1

O=c1cc(N2CCOCC2)oc2c(-c3cccc4c3sc3ccccc34)cccc12 + O=C(CCCCCCC(=O)Nc1ccccc1)NO [Vorinostat] (partner 1 µM)
relative viability (SW 900; first compound 0.03162 µM): 0.508
relative viability (SW 900; first compound 0.1 µM): 0.364
relative viability (SW 900; first compound 0.3162 µM): 0.544
relative viability (SW 900; first compound 1 µM): 0.359
relative viability (NCI-H1793; first compound 0.01 µM): 0.771
relative viability (NCI-H1793; first compound 0.03162 µM): 0.612
relative viability (NCI-H1793; first compound 0.1 µM): 0.672
relative viability (NCI-H1793; first compound 0.3162 µM): 0.76
relative viability (NCI-H1793; first compound 1 µM): 0.658
relative viability (PC-3 [JPC-3]; first compound 0.01 µM): 0.76
relative viability (PC-3 [JPC-3]; first compound 0.03162 µM): 0.774
relative viability (PC-3 [JPC-3]; first compound 0.1 µM): 0.859
relative viability (PC-3 [JPC-3]; first compound 0.3162 µM): 0.896
relative viability (PC-3 [JPC-3]; first compound 1 µM): 0.401
relative viability (H3255; first compound 0.01 µM): 0.83
relative viability (H3255; first compound 0.03162 µM): 0.837
relative viability (H3255; first compound 0.1 µM): 0.759
relative viability (H3255; first compound 0.3162 µM): 0.765
relative viability (H3255; first compound 1 µM): 0.558
relative viability (NCI-H596; first compound 0.01 µM): 0.564
relative viability (NCI-H596; first compound 0.03162 µM): 0.586
relative viability (NCI-H596; first compound 0.1 µM): 0.581
relative viability (NCI-H596; first compound 0.3162 µM): 0.626
relative viability (NCI-H596; first compound 1 µM): 0.573
relative viability (201T; first compound 0.01 µM): 0.961
relative viability (201T; first compound 0.03162 µM): 0.95
relative viability (201T; first compound 0.1 µM): 0.982
relative viability (201T; first compound 0.3162 µM): 0.959
relative viability (201T; first compound 1 µM): 0.915
relative viability (PC-14; first compound 0.01 µM): 0.682
relative viability (PC-14; first compound 0.03162 µM): 0.75
relative viability (PC-14; first compound 0.1 µM): 0.713
relative viability (PC-14; first compound 0.3162 µM): 0.84
relative viability (PC-14; first compound 1 µM): 0.768
relative viability (NCI-H2228; first compound 0.01 µM): 0.669
relative viability (NCI-H2228; first compound 0.03162 µM): 0.896
relative viability (NCI-H2228; first compound 0.1 µM): 0.562
relative viability (NCI-H2228; first compound 0.3162 µM): 0.651
relative viability (NCI-H2228; first compound 1 µM): 0.722
relative viability (LK-2; first compound 0.01 µM): 0.343
relative viability (LK-2; first compound 0.03162 µM): 0.267
relative viability (LK-2; first compound 0.1 µM): 0.345
relative viability (LK-2; first compound 0.3162 µM): 0.233
relative viability (LK-2; first compound 1 µM): 0.27
relative viability (NCI-H2347; first compound 0.01 µM): 0.622
relative viability (NCI-H2347; first compound 0.03162 µM): 0.547
relative viability (NCI-H2347; first compound 0.1 µM): 0.534
relative viability (NCI-H2347; first compound 0.3162 µM): 0.595
relative viability (NCI-H2347; first compound 1 µM): 0.635
relative viability (NCI-H727; first compound 0.01 µM): 1.12
relative viability (NCI-H727; first compound 0.03162 µM): 1.31
relative viability (NCI-H727; first compound 0.1 µM): 0.626
relative viability (NCI-H727; first compound 0.3162 µM): 1.04
relative viability (NCI-H727; first compound 1 µM): 1.19
relative viability (A-427; first compound 0.01 µM): 0.844
relative viability (A-427; first compound 0.03162 µM): 0.95
relative viability (A-427; first compound 0.1 µM): 0.843
relative viability (A-427; first compound 0.3162 µM): 0.82
relative viability (A-427; first compound 1 µM): 0.86
relative viability (NCI-H23; first compound 0.01 µM): 0.555
relative viability (NCI-H23; first compound 0.03162 µM): 0.68
relative viability (NCI-H23; first compound 0.3162 µM): 0.795
relative viability (NCI-H23; first compound 1 µM): 0.537
relative viability (LCLC-97TM1; first compound 0.01 µM): 0.699
relative viability (LCLC-97TM1; first compound 0.03162 µM): 0.725
relative viability (LCLC-97TM1; first compound 0.1 µM): 0.3
relative viability (LCLC-97TM1; first compound 0.3162 µM): 0.66
relative viability (LCLC-97TM1; first compound 1 µM): 0.784
relative viability (LCLC-103H; first compound 0.01 µM): 0.739
relative viability (LCLC-103H; first compound 0.03162 µM): 0.824
relative viability (LCLC-103H; first compound 0.1 µM): 0.826
relative viability (LCLC-103H; first compound 0.3162 µM): 0.826
relative viability (LCLC-103H; first compound 1 µM): 0.857
relative viability (COR-L23; first compound 0.01 µM): 0.578
relative viability (COR-L23; first compound 0.03162 µM): 0.503
relative viability (COR-L23; first compound 0.1 µM): 0.473
relative viability (COR-L23; first compound 0.3162 µM): 0.424
relative viability (COR-L23; first compound 1 µM): 0.54
relative viability (LC-2-ad; first compound 0.01 µM): 0.703
relative viability (LC-2-ad; first compound 0.03162 µM): 0.72
relative viability (LC-2-ad; first compound 0.1 µM): 0.798
relative viability (LC-2-ad; first compound 0.3162 µM): 0.647
relative viability (LC-2-ad; first compound 1 µM): 0.741
relative viability (SW 1573; first compound 0.01 µM): 0.572
relative viability (SW 1573; first compound 0.03162 µM): 0.767
relative viability (SW 1573; first compound 0.1 µM): 0.55
relative viability (SW 1573; first compound 0.3162 µM): 0.614
relative viability (SW 1573; first compound 1 µM): 0.592
relative viability (HCC-44; first compound 0.01 µM): 1.05
relative viability (HCC-44; first compound 0.03162 µM): 1.05
relative viability (HCC-44; first compound 0.1 µM): 1.06
relative viability (HCC-44; first compound 0.3162 µM): 1.03
relative viability (HCC-44; first compound 1 µM): 1.07
relative viability (NCI-H460; first compound 0.01 µM): 0.68
relative viability (NCI-H460; first compound 0.03162 µM): 0.773
relative viability (NCI-H460; first compound 0.1 µM): 0.957
relative viability (NCI-H460; first compound 0.3162 µM): 0.655
relative viability (NCI-H460; first compound 1 µM): 0.75
relative viability (NCI-H1650; first compound 0.01 µM): 0.485
relative viability (NCI-H1650; first compound 0.03162 µM): 0.692
relative viability (NCI-H1650; first compound 0.1 µM): 0.547
relative viability (NCI-H1650; first compound 0.3162 µM): 0.631
relative viability (NCI-H1650; first compound 1 µM): 0.49
relative viability (LU99A; first compound 0.01 µM): 0.489
relative viability (LU99A; first compound 0.03162 µM): 0.491
relative viability (LU99A; first compound 0.1 µM): 0.446
relative viability (LU99A; first compound 0.3162 µM): 0.512
relative viability (LU99A; first compound 1 µM): 0.491
